These molecules were tested on Ras Initiative (RI) KRAS G12C cells (assay: phospho-ERK HTRF assay in RI KRAS G12C cells). Conditions: 11-point dose response starting at 2,500 nM, 4 hours or 16 hours treatment, read-out: pERK (RI).
Assay type: cell-based
Protocol: KRAS G12C mutant lines, NCI H358 (ATCC, CRL-5807), and Ras Initiative (RI) KRAS G12C were cultured according to published protocols and maintained at 37° C. in 5% CO2. The phospho-ERK HTRF assay was executed following provider's protocol (CisBio #64AERPEH). NCI-H358 or RI KRAS G12C cells were plated at a density of 50,000 cells per well in a 96-well plate (Corning #3903) in respective medias (for NCI-H358, RPMI+10% FBS+1% Pen/Strep, and for RI KRAS G12C, DMEM+10% FBS+1% Pen/Strep+4 μg/mL Blasticidin) and maintained at 37° C. in 5% CO2. Cells were allowed to adhere overnight and treated the following day with a Tecan D300e Digital Dispenser (Tecan Group Ltd., Switzerland) using an 11-point dose response starting at 2,500 nM of exemplified compounds followed by sequential 1:3 dilutions for either 4 hours or 16 hours. Following compound treatment, the cells were washed once with ice-cold PBS. Cells were lysed by adding 50 μL of lysis buffer (1×) supplemented with 1× Pierce Halt Protease and Phosphatase inhibitor and incubated for 30 minutes at 4° C. with shaking. After lysis, 16 μL of cell lysate from the 96-well cell-culture plate was transferred to a 384-well plate (Perkin Elmer #6007290). The premixed antibody solution was prepared by mixing (vol/vol) advanced phospho-ERK1/2 d2 antibody and advanced phospho-ERK1/2 Eu Cryptate antibody. The premixed antibody solution (4 μL) was added to the detection plate containing cell lysate. The detection plate was incubated overnight at 4° C., the HTRF signal was read the next day by using either a Spectramax M5 or Spectramax i3 microplate reader (Molecular Devices, San Jose, CA, USA), and data was processed according to manufacturer's protocol.
Examples were evaluated according to the above p-ERK assay

SMILES	IC50
C=CC(=O)N1CCN(c2nc(=O)n3c4c(c(-c5ccc(F)c6sc(=O)[nH]c56)c(C(F)(F)F)cc24)SCC2(CCC2)C3)CC1 [Example 9, 8′-(4-acryloylpiperazin-1-yl)-11′-(7-fluoro-2-oxo-2,3-dihydrobenzo[d]thiazol-4-yl)-10′-(trifluoromethyl)-2′H,4′H,6′H-spiro[cyclobutane-1,3′-[1,4]thiazepino[2,3,4-ij]quinazolin]-6′-one]	222 nM
C=CC(=O)N1[C@H](C)CN(c2nc(=O)n3c4c(c(-c5ccc(F)c6[nH]c(=O)[nH]c56)c(C(F)(F)F)cc24)SC[C@@H](OC)C3)C[C@@H]1C [Example 1, (3S)-8-((3S,5R)-4-acryloyl-3,5-dimethylpiperazin-1-yl)-11-(7-fluoro-2-oxo-2,3-dihydro-1H-benzo[d]imidazol-4-yl)-3-methoxy-10-(trifluoromethyl)-3,4-dihydro-2H,6H-[1,4]thiazepino[2,3,4-ij]quinazolin-6-one]	> 2500 nM
C=CC(=O)N1[C@H](C)CN(c2nc(=O)n3c4c(c(-c5ccc(F)c6[nH]c(=O)[nH]c56)c(C(F)(F)F)cc24)SCC2(CCC2)C3)C[C@@H]1C [Example 4, 8′-((3S,5R)-4-acryloyl-3,5-dimethylpiperazin-1-yl)-11′-(7-fluoro-2-oxo-2,3-dihydro-1H-benzo[d]imidazol-4-yl)-10′-(trifluoromethyl)-2′H, 4′H,6′H-spiro[cyclobutane-1,3′-[1,4]thiazepino[2,3,4-ij]quinazolin]-6′-one]	> 2500 nM
C=CC(=O)N1CCN(c2nc(=O)n3c4c(c(-c5ccc(F)c6[nH]c(=O)[nH]c56)c(C(F)(F)F)cc24)SCC2(CCC2)C3)CC1 [Example 5, 8′-(4-acryloylpiperazin-1-yl)-11′-(7-fluoro-2-oxo-2,3-dihydro-1H-benzo[d]imidazol-4-yl)-10′-(trifluoromethyl)-2′H,4′H,6′H-spiro[cyclobutane-1,3′-[1,4]thiazepino[2,3,4-ij]quinazolin]-6′-one]	> 2500 nM
C=CC(=O)N1CCN(c2nc(=O)n3c4c(c(-c5ccc(F)c6[nH]c(=O)[nH]c56)c(C(F)(F)F)cc24)SC[C@@H]3COC)CC1 [Example 3, (3S,10S)-7-(4-acryloylpiperazin-1-yl)-10-(7-fluoro-2-oxo-2,3-dihydro-1H-benzo[d]imidazol-4-yl)-3-(methoxymethyl)-9-(trifluoromethyl)-2,3-dihydro-5H-[1,4]thiazino[2,3,4-ij]quinazolin-5-one]	> 2500 nM
C=CC(=O)N1[C@H](C)CN(c2nc(=O)n3c4c(c(-c5ccc(F)c6[nH]c(=O)[nH]c56)c(C(F)(F)F)cc24)SC[C@@H]3COC)C[C@@H]1C [Example 2, (3S,10S)-7-((3S,5R)-4-acryloyl-3,5-dimethylpiperazin-1-yl)-10-(7-fluoro-2-oxo-2,3-dihydro-1H-benzo[d]imidazol-4-yl)-3-(methoxymethyl)-9-(trifluoromethyl)-2,3-dihydro-5H-[1,4]thiazino[2,3,4-ij]quinazolin-5-one]	> 2500 nM

These reach a lower IC50. Values come first.

IC50	SMILES
68 nM	C=CC(=O)N1[C@H](C)CN(c2nc(=O)n3c4c(c(-c5ccc(F)c6sc(=O)[nH]c56)c(C(F)(F)F)cc24)SC[C@@H]3COC)C[C@@H]1C [Example 6, (3S,10S)-7-((3S,5R)-4-acryloyl-3,5-dimethylpiperazin-1-yl)-10-(7-fluoro-2-oxo-2,3-dihydrobenzo[d]thiazol-4-yl)-3-(methoxymethyl)-9-(trifluoromethyl)-2,3-dihydro-5H-[1,4]thiazino[2,3,4-ij]quinazolin-5-one]
46 nM	C=CC(=O)N1[C@H](C)CN(c2nc(=O)n3c4c(c(-c5ccc(F)c6sc(=O)n(C)c56)c(C(F)(F)F)cc24)SC[C@@H]3COC)C[C@@H]1C [Example 10, (3S)-7-((3S,5R)-4-acryloyl-3,5-dimethylpiperazin-1-yl)-10-(7-fluoro-3-methyl-2-oxo-2,3-dihydrobenzo[d]thiazol-4-yl)-3-(methoxymethyl)-9-(trifluoromethyl)-2,3-dihydro-5H-[1,4]thiazino[2,3,4-ij]quinazolin-5-one]
171 nM	C=CC(=O)N1[C@H](C)CN(c2nc(=O)n3c4c(c(-c5ccc(F)c6sc(=O)[nH]c56)c(C(F)(F)F)cc24)SCC2(CCC2)C3)C[C@@H]1C [Example 8, 8′-((3S,5R)-4-acryloyl-3,5-dimethylpiperazin-1-yl)-11′-(7-fluoro-2-oxo-2,3-dihydrobenzo[d]thiazol-4-yl)-10′-(trifluoromethyl)-2′H,4′H,6′H-spiro[cyclobutane-1,3′-[1,4]thiazepino[2,3,4-ij]quinazolin]-6′-one]
18 nM	C=CC(=O)N1CCN(c2nc(=O)n3c4c(c(-c5ccc(F)c6sc(=O)[nH]c56)c(C(F)(F)F)cc24)SC[C@@H]3COC)CC1 [Example 7, (3S,10S)-7-(4-acryloylpiperazin-1-yl)-10-(7-fluoro-2-oxo-2,3-dihydrobenzo[d]thiazol-4-yl)-3-(methoxymethyl)-9-(trifluoromethyl)-2,3-dihydro-5H-[1,4]thiazino[2,3,4-ij]quinazolin-5-one]

What follows are molecules tested against T1, KRAS 4B G12C protein (Homo sapiens, UniProt P01116, G12C) (assay: KRAS G12C covalent adduct formation (CAF) assay, LC-MS). Conditions: 10 μM compound, 5 μM protein, 22° C.
T1 construct: made in house; host or cells: E. coli BL21
Assay type: binding
Protocol: This Example provides a protocol for assessing covalent adduct formation (CAF) between the compounds of Formula (I) and KRAS.
In vitro covalent adduct formation assay: Covalent adduct formation (CAF) reactions between Cys12 of the KRAS 4B G12C protein and the compounds disclosed herein were measured in vitro using liquid chromatography-mass spectrometry (LC-MS).
Recombinant Human KRAS 4B protein containing the G12C mutation was used in compound screening experiments. This protein contained 188 amino acids in total, including an N-terminal 6-Histidine tag, followed by a Tobacco Etch Virus (TEV) tag, followed by residues 1-169 of the native KRAS 4B sequence. The exact mass of the protein is 21,310 Da as determined by mass spectrometry. […]
The recombinant protein is expressed in E. coli BL21 cells and purified using affinity chromatography via a Ni-NTA column. […] The intact mass of the protein samples was measured by LC-MS using a QExactive+ mass spectrometer (Thermo Scientific). An amount of 500 ng total protein was injected onto a C8 reverse phase column, eluted with a seven-minute gradient of 30%-90% acetonitrile/0.1% formic acid, and analyzed for intact mass by the mass spectrometer. Adducts identified were confirmed to be within 1 Dalton of the expected mass, and the relative ratios of free:adduct protein were used to quantify the percentage of protein bound by the compound. […]

SMILES	% CAF @ 60 min
C=CC(=O)N1[C@H](C)CN(c2nc(=O)n3c4c(c(-c5ccc(F)c6[nH]c(=O)[nH]c56)c(C(F)(F)F)cc24)SC[C@@H](OC)C3)C[C@@H]1C [Example 1, (3S)-8-((3S,5R)-4-acryloyl-3,5-dimethylpiperazin-1-yl)-11-(7-fluoro-2-oxo-2,3-dihydro-1H-benzo[d]imidazol-4-yl)-3-methoxy-10-(trifluoromethyl)-3,4-dihydro-2H,6H-[1,4]thiazepino[2,3,4-ij]quinazolin-6-one]	75%

— patent publication US20240383921A1, “AMIDE AND UREA-CONTAINING TRICYCLIC KRAS INHIBITORS” (Erasca, Inc., priority 2021, published 2024)
